These results are taken from ChEMBL document CHEMBL5230129, “Antibacterial activities with the structure-activity relationship of coumarin derivatives” (2020).

≈ marks a conversion by molar mass, not a printed value.

What all share (assay type): functional
Assay [1] has as its system Escherichia coli. The experiment in a line: Antibacterial activity against Escherichia coli MTCC 739 assessed as inhibition of bacterial growth incubated for 24 hrs by spectrophotometric assay.
For assay [2], the system named is Pseudomonas aeruginosa. The experiment in a line: Antibacterial activity against Pseudomonas aeruginosa assessed as zone of inhibition incubated for 24 to 48 hrs by agar well diffusion assay. Particulars: time 24-48 hrs.
Assay [3] concerns Staphylococcus aureus. The experiment in a line: Antibacterial activity against Staphylococcus aureus assessed as zone of inhibition incubated for 24 to 48 hrs by agar well diffusion assay. Particulars: time 24-48 hrs.
In assay [4] the test system is Bacillus subtilis. Nature of the assay: Antibacterial activity against Bacillus subtilis assessed as inhibition of bacterial growth relative to control.
Assay [5] has as its system Escherichia coli. Nature of the assay: Antibacterial activity against Escherichia coli assessed as inhibition of bacterial growth relative to control.
In assay [6] the test system is Staphylococcus aureus. Nature of the assay: Antibacterial activity against Staphylococcus aureus assessed as zone of inhibition incubated for 24 hrs by well-diffusion method.
For assay [7], the system named is Pseudomonas aeruginosa. Nature of the assay: Antibacterial activity against Pseudomonas aeruginosa assessed as zone of inhibition incubated for 24 hrs by well-diffusion method.
The subject of another assay is Micrococcus luteus. Nature of the assay: Antibacterial activity against Micrococcus luteus assessed as zone of inhibition incubated for 24 hrs by well-diffusion method.
Assay [8] relates to Escherichia coli. The experiment in a line: Antibacterial activity against Escherichia coli assessed as zone of inhibition incubated for 24 hrs by well-diffusion method.
In assay [9] the test system is Staphylococcus aureus. Nature of the assay: Antibacterial activity against Staphylococcus aureus MTCC 3160 assessed as inhibition of bacterial growth by broth micro dilution assay.
The test system of assay [10] is Staphylococcus aureus. Nature of the assay: Antibacterial activity against Staphylococcus aureus assessed as inhibition of bacterial growth by broth dilution assay.
For assay [11], the system named is Bacillus subtilis. Nature of the assay: Antibacterial activity against Bacillus subtilis assessed as inhibition of bacterial growth by broth dilution assay.
Assay [12] deals with Escherichia coli. The experiment in a line: Antibacterial activity against Escherichia coli NCIM 2256 assessed as inhibition of bacterial growth incubated for 24 hrs by serial twofold dilution assay.
In assay [13] the test system is Escherichia coli. The experiment in a line: Antibacterial activity against Escherichia coli ATCC 8739 assessed as inhibition of bacterial growth incubated for 24 hrs by microbroth dilution assay.
For assay [14], the system named is Staphylococcus aureus. Nature of the assay: Antibacterial activity against Staphylococcus aureus MTCC 96 assessed as inhibition of bacterial growth incubated for 18 to 20 hrs by broth microdilution assay. Particulars: time 18-20 hrs.
A further assay has as its system Enterococcus faecalis. Nature of the assay: Antibacterial activity against Enterococcus faecalis PCM 2673 assessed as inhibition of bacterial growth incubated for 24 hrs by microbroth dilution assay.
The next assay deals with Pseudomonas fluorescens. Nature of the assay: Antibacterial activity against Pseudomonas fluorescens NCIM 2173 assessed as inhibition of bacterial growth incubated for 24 hrs by serial twofold dilution assay.
For assay [15], the system named is Sphingomonas paucimobilis. The experiment in a line: Antibacterial activity against Flavobacterium devorans ATCC 10829 assessed as inhibition of bacterial growth incubated for 24 hrs by serial twofold dilution assay.
The test system of assay [16] is Escherichia coli. The experiment in a line: Antibacterial activity against Escherichia coli MTCC 443 assessed as inhibition of bacterial growth incubated for 18 to 20 hrs by broth microdilution assay. Particulars: time 18-20 hrs.
In the next assay the test system is Helicobacter pylori. Nature of the assay: Antibacterial activity against Helicobacter pylori ATCC43504 assessed as inhibition of bacterial growth incubated for 72 hrs by micro-dilution broth assay.
Assay [17] deals with Pseudomonas aeruginosa. The experiment in a line: Antibacterial activity against Pseudomonas aeruginosa assessed as inhibition of bacterial growth incubated for 24 hrs by broth microdilution assay.
The subject of assay [18] is Escherichia coli. Nature of the assay: Antibacterial activity against Escherichia coli MTCC 40 assessed as inhibition of bacterial growth incubated for 24 hrs by well-plate method.
Assay [19] relates to Staphylococcus aureus. Nature of the assay: Antibacterial activity against Staphylococcus aureus MTCC 121 assessed as inhibition of bacterial growth incubated for 24 hrs by well-plate method.
For assay [20], the system named is Staphylococcus aureus. Nature of the assay: Antibacterial activity against Staphylococcus aureus MTCC 121 assessed as zone of inhibition incubated for 24 hrs by well-plate method.
Assay [21] concerns Escherichia coli. The experiment in a line: Antibacterial activity against Escherichia coli MTCC 40 assessed as zone of inhibition incubated for 24 hrs by well-plate method.
Assay [22] has as its system Staphylococcus aureus. Nature of the assay: Antibacterial activity against Staphylococcus aureus ATCC 25923 assessed as zone of inhibition incubated for 24 hrs by paper disk method.
Assay [23] concerns Pseudomonas aeruginosa. Nature of the assay: Antibacterial activity against Pseudomonas aeruginosa ATCC 27853 assessed as zone of inhibition incubated for 24 hrs by paper disk method.
The test system of assay [24] is Escherichia coli. Nature of the assay: Antibacterial activity against Escherichia coli ATCC 25922 assessed as zone of inhibition incubated for 24 hrs by paper disk method.
Assay [25] relates to Staphylococcus aureus. The experiment in a line: Antibacterial activity against Staphylococcus aureus MTCC 740 assessed as zone of inhibition incubated overnight by Kirby-Bauer disc diffusion method.
The subject of assay [26] is Escherichia coli. Nature of the assay: Antibacterial activity against Escherichia coli MTCC 1586 assessed as zone of inhibition incubated overnight by Kirby-Bauer disc diffusion method.
The next assay concerns Klebsiella pneumoniae. Nature of the assay: Antibacterial activity against Klebsiella pneumoniae assessed as zone of inhibition incubated for 24 hrs by disk diffusion assay.

Take `O=c1cc(OCc2cn(CN3CCN(c4ccccc4F)CC3)c(=S)s2)c2ccccc2o1`: the MIC with Escherichia coli [1] was determined as 12.5 µg/mL (≈ 25.8 µM).

Turning to `COc1cc(COc2cn(CCOc3cc(=O)oc4ccccc34)nn2)ccc1/C=C/C(=O)/C=C/c1ccc(OC)c(OC)c1`, the “inhibition zone (IZ)” value in the assay on Pseudomonas aeruginosa [2] worked out at 7 mm; in the assay with Staphylococcus aureus [3], 8 mm.

Take `COC(=O)c1nnn(CC(=O)c2cc3cc(Cl)ccc3oc2=O)c1C(=O)OC`: the “inhibition (INH)” value in the assay with Bacillus subtilis [4] and in the assay on Escherichia coli [5] was 83.3% each time.

In the case of `CO/N=C(\C(=O)N[C@@H]1C(=O)N2C(C(=O)O)=C(COC(C)=O)CS[C@H]12)c1csc(N)n1` [CEFOTAXIME], the “inhibition zone (IZ)” value in the assay on Staphylococcus aureus [6], in the assay with Pseudomonas aeruginosa [7], in the assay on Micrococcus luteus and in the assay with Escherichia coli [8] was 11 mm each time.

In the case of `Cc1cc(=O)oc2c1=CCC(Cl)C=2C1C(C#N)=C(N)Oc2c1c(=O)oc1ccccc21` (stereo not drawn), in the assay with Staphylococcus aureus [9], the MIC is 0.8 µg/mL (≈ 1.84 µM).

In the case of `O=c1oc2ccc(Br)cc2cc1-c1cc2c(ccc3ccccc32)o1`, the values for the MIC in the assay with Staphylococcus aureus [10] and in the assay on Bacillus subtilis [11] were 0.2 µg/mL (≈ 0.511 µM) and 6.25 µg/mL (≈ 16 µM), respectively.

Take `COc1cc(COc2cn(CCOc3cc(=O)oc4ccccc34)nn2)ccc1/C=C/C(=O)/C=C/c1cc(OC)c(OC)c(OC)c1`: the “inhibition zone (IZ)” value in the assay with Staphylococcus aureus [3] is 7 mm.

For `O=C(N[C@H](CO)[C@H](O)c1ccc([N+](=O)[O-])cc1)C(Cl)Cl` [CHLORAMPHENICOL], the MIC worked out at 2 µg/mL (≈ 6.19 µM) in the assay with Escherichia coli [12]; 1.2 µg/mL (≈ 3.71 µM) in the assay on Escherichia coli [13]; 50 µg/mL (≈ 155 µM) in the assay with Staphylococcus aureus [14]; 5 µg/mL (≈ 15.5 µM) with Enterococcus faecalis; 2 µg/mL (≈ 6.19 µM) with Pseudomonas fluorescens; 2 µg/mL (≈ 6.19 µM) in [15]. The MIC with Escherichia coli [16] turned out to be 50 µg/mL (≈ 155 µM).

In the case of `COc1ccc2c(CC(=O)O)cc(=O)oc2c1`, the MIC in the assay on Helicobacter pylori was found to be 49 µg/mL (≈ 209 µM).

Consider `CO/N=C(\C(=O)N[C@@H]1C(=O)N2C(C(=O)O)=C(COC(N)=O)CS[C@H]12)c1ccco1` [CEFUROXIME], for which, in the assay with Pseudomonas aeruginosa [17], the MIC amounted to 98 µg/mL (≈ 231 µM).

For `O=c1oc2cc(Br)ccc2cc1-c1csc(N/N=C/c2cn(-c3ccccc3)nc2-c2cc3ccccc3oc2=O)n1`, the MIC in the assay with Escherichia coli [18] is 12.5 µg/mL (≈ 19.6 µM); with Staphylococcus aureus [19], 50 µg/mL (≈ 78.6 µM). Besides, the “inhibition zone (IZ)” value in the assay on Staphylococcus aureus [20] and in the assay on Escherichia coli [21] was 22 mm throughout.

Take `COC(=O)c1nnn(CC(=O)c2cc3cc(Br)ccc3oc2=O)c1C(=O)OC`: the “inhibition (INH)” value in the assay with Bacillus subtilis [4] worked out at 82.2%; in the assay on Escherichia coli [5], 88.8%.

With `CN[C@@H]1[C@H](O[C@H]2[C@H](O[C@H]3[C@H](O)[C@@H](O)[C@H](N=C(N)N)[C@@H](O)[C@@H]3N=C(N)N)O[C@@H](C)[C@]2(O)C=O)O[C@@H](CO)[C@H](O)[C@H]1O` [STREPTOMYCIN], the MIC in the assay on Escherichia coli [18] and in the assay with Staphylococcus aureus [19] was 12.5 µg/mL (≈ 21.5 µM) in each case. Besides, the “inhibition zone (IZ)” value in the assay with Staphylococcus aureus [20] was 20 mm; with Escherichia coli [21], 22 mm.

For the compound `COc1cccc(/C=C/C(=O)/C=C/c2ccc(COc3cn(CCOc4cc(=O)oc5ccccc45)nn3)cc2OC)c1`, the “inhibition zone (IZ)” value in the assay with Pseudomonas aeruginosa [2] was determined as 7 mm; in the assay on Staphylococcus aureus [3], 8 mm.

Regarding `COc1ccc(CNC(=O)COc2cc(=O)oc3ccccc23)c(OC)c1`, the “inhibition zone (IZ)” value amounted to 10 mm in the assay on Staphylococcus aureus [22], 12 mm in the assay on Pseudomonas aeruginosa [23] and 13 mm in the assay with Escherichia coli [24].

For the compound `CC[N+](CC)(CC)CCCCCCCCNCc1cn(Cc2cc(=O)oc3c(O)c4c(cc23)CCC(C)(C)O4)nn1.[Br-]`, the “inhibition zone (IZ)” value in the assay with Staphylococcus aureus [25] and in the assay on Escherichia coli [26] was 2 mm each time.

In the case of `C[C@H]1COc2c(N3CCN(C)CC3)c(F)cc3c(=O)c(C(=O)O)cn1c23.C[C@H]1COc2c(N3CCN(C)CC3)c(F)cc3c(=O)c(C(=O)O)cn1c23.O` [LEVOFLOXACIN], the MIC with Pseudomonas aeruginosa [17] was 3.12 µg/mL.

Consider `Cc1cc(OCc2cn(Cc3ccc([N+](=O)[O-])cc3)nn2)cc2oc(=O)ccc12`, for which the MIC in the assay with Escherichia coli [12] was found to be 2 µg/mL (≈ 5.1 µM); with Pseudomonas fluorescens, 2 µg/mL (≈ 5.1 µM); in assay [15], 16 µg/mL (≈ 40.8 µM).

Regarding `Cc1ccc2oc(-c3cc4ccccc4oc3=O)cc2c1`, the MIC was found to be 0.2 µg/mL (≈ 0.724 µM) in the assay on Staphylococcus aureus [10] and 0.4 µg/mL (≈ 1.45 µM) in the assay with Bacillus subtilis [11].

In the case of `COC(=O)c1nnn(CC(=O)c2cc3cc(C)ccc3oc2=O)c1C(=O)OC`, the “inhibition (INH)” value in the assay with Bacillus subtilis [4] and with Escherichia coli [5] was 83.3% each time.

On to GENTAMICIN, for which, in the assay on Klebsiella pneumoniae, the inhibition zone (IZ) is 16 mm.
